Values quoted from earlier work in US20120309722A1, “THERAPEUTIC REGIMENS FOR THE TREATMENT OF IMMUNOINFLAMMATORY DISORDERS” (priority 2007, published 2012).

Tests used:
[1] = BNF guidelines; for Equivalent Dose to Prednisolone: Equal to 1 mg prednisolone: dose equivalent to 1 mg prednisolone; for Equivalent Dose to Prednisolone: Equal to 5 mg prednisolone: dose equivalent to 5 mg prednisolone
[2] = nasal administration; BNF 37 March 1999

| Compound | Equivalent Dose to Prednisolone: Equal to 1 mg prednisolone [1] | Equivalent Dose to Prednisolone: Equal to 5 mg prednisolone [1] | broadly similar dose from clinical dosing equivalence [2] |
| --- | --- | --- | --- |
| methyl prednisone | 0.8 mg | 4 mg | – |
| CC(=O)OCC(=O)[C@@]12N=C(C)O[C@@H]1C[C@H]1[C@@H]3CCC4=CC(=O)C=C[C@]4(C)[C@H]3[C@@H](O)C[C@@]12C [deflazacort] | 1.2 mg | 6 mg | – |
| CC(=O)OCC(=O)[C@@]1(O)CC[C@H]2[C@@H]3CCC4=CC(=O)CC[C@]4(C)[C@H]3C(=O)C[C@@]21C [cortisone acetate] | 5 mg | 25 mg | – |
| C[C@]12CCC(=O)C=C1CC[C@@H]1[C@@H]2[C@@H](O)C[C@@]2(C)[C@H]1CC[C@]2(O)C(=O)CO [hydrocortisone] | 4 mg | 20 mg | – |
| C[C@]12C=CC(=O)C=C1CC[C@H]1[C@@H]3C[C@@H](O)[C@](O)(C(=O)CO)[C@@]3(C)C[C@H](O)[C@@]12F [triamcinolone] | 0.8 mg | 4 mg | 110 µg |
